Laboratory results from article PMC8766756, “Insights on Cancer Cell Inhibition, Subcellular Activities, and Kinase Profile of Phenylacetamides Pending 1H-Imidazol-5-One Variants” (Frontiers in Pharmacology, 2022).
“And” between values parts separate entries of the source, which are not always exact repeats. Equal entries are not always repeated.

What was measured:
Assay in all cases: PamChip tyrosine kinase microarray
Assay type in all cases: biochemical
Details in all cases: 0.1 µM, HL60 lysate
[1] = molecular target: T1, Abl (P00519) (Homo sapiens, UniProt P00519)
T1 construct: purchased PamGene (PamChip PTK array, Upstream Kinase Analysis)
T1 sequence (P00519 whole entry): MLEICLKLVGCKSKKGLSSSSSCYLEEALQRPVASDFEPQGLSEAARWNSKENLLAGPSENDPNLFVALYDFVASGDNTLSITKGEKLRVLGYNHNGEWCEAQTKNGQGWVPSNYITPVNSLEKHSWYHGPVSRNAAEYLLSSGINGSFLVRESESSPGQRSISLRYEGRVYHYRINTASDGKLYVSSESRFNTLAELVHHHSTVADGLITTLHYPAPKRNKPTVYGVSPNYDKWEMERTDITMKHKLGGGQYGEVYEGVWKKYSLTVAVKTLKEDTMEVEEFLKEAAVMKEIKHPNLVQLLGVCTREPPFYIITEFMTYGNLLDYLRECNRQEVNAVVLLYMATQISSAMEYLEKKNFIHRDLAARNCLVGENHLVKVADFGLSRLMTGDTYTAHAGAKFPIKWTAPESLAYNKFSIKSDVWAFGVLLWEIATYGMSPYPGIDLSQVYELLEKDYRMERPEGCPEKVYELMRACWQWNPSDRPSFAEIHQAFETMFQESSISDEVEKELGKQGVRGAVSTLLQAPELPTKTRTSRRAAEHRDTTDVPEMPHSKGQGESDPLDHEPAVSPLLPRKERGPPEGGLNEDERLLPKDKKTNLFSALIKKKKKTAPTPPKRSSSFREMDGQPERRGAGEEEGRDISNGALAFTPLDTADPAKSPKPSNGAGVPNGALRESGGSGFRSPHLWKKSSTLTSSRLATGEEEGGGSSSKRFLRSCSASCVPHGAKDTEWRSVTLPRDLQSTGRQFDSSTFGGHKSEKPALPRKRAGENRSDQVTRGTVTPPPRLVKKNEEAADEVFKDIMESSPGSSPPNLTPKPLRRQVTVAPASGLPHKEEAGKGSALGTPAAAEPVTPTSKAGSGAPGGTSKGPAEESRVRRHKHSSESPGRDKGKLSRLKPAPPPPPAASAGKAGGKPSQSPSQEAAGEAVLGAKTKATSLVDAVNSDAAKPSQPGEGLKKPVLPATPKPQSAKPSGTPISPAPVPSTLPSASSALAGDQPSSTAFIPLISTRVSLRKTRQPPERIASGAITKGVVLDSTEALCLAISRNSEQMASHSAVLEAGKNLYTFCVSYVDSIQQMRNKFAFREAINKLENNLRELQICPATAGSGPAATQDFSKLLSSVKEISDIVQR
Description: (§1) The reproducible high potency of KIM-161 on leukemia cell lines was initially speculated to encompass Src tyrosine kinase inhibition. Even so, we also suspected that KIM-161 might be affecting other tyrosine kinases because the HL60 cells are not among the most Src-dependent highly proliferative cells ([Collins, 1987]). Therefore, a profiling of the kinase activities was performed after treatment with KIM-161 using PamChip® tyrosine kinase microarray. This analysis is based on incubation of cell lysate with 3D microarray that projects peptides specific for 143 tyrosine kinases. If a kinase is modified in the cells, it will be detected by phosphorylating its specific peptide in the microarray.
(§2) This test measured the activities of an array of tyrosine kinases of treated HL60 cells compared to the control (untreated cells) after incubation with KIM-161 for 48 h at concentrations of 0.001, 0.01, 0.1, 1.0, 10, and 50 µM. The log fold change (LFC) heat map was initially used to identify significant peptides affected at each concentration (Figure 5).
(§3) An Upstream Kinase Tool was used to generate a putative list of kinases responsible for phosphorylating the phosphosites on the PamChip®. It is an interpretation and is highly dependent on the contents of the underlying phosphorylation databases. Kinase score (Table 2) was used for ranking kinases based on their significance and specificity in terms of the set of peptides used for the corresponding kinase. Kinase statistics indicates the overall change of the peptide set that represents a certain kinase. Kinase statistics value of <0 indicates lower kinase activity in the lysate spiked with the compound and vice versa. Table 2 lists the 20 most changed kinases within treated HL60 cell lysates by 0.1 μM KIM-161.
(§4) Every compound had spiked into a leukemic (AML) cell line HL60 lysate at different concentrations (0.001, 0.01, 0.1, 1, 10, and 50 μM). In addition, DMSO had also spiked at a low concentration (2% v/v) to the HL60 lysate as the control. The samples were profiled on PamGene's tyrosine kinase (PTK) arrays in technical replicates, covering a total of 196 phosphorylation sites. The frozen leukemic HL60 cultured cell pellet was sent to PamGene. At PamGene, the cells were lysed in the presence of the lysis buffer and proteases inhibitor cocktail. The protein concentration was measured using the standard Bradford assay as per the PamGene SOPs. These lysates were further used for generating the PTK activity profiles. For spiking, KIM-161 was received in powder form and dissolved in DMSO at the PamGene facility, followed by storing it at −20°C in small aliquots. PamGene used its in-house bioinformatics toolbox in combination with other methods to generate the hypotheses of signaling pathways.

[2] = molecular target: T2, FGFR3 (P22607) (Homo sapiens, UniProt P22607)
T2 construct: purchased PamGene (PamChip PTK array, Upstream Kinase Analysis)
Description: as §1, §2, §3, §4

[3] = molecular target: T3, HER2 (P04626) (Homo sapiens, UniProt P04626)
T3 construct: purchased PamGene (PamChip PTK array, Upstream Kinase Analysis)
T3 sequence (P04626 23-1255): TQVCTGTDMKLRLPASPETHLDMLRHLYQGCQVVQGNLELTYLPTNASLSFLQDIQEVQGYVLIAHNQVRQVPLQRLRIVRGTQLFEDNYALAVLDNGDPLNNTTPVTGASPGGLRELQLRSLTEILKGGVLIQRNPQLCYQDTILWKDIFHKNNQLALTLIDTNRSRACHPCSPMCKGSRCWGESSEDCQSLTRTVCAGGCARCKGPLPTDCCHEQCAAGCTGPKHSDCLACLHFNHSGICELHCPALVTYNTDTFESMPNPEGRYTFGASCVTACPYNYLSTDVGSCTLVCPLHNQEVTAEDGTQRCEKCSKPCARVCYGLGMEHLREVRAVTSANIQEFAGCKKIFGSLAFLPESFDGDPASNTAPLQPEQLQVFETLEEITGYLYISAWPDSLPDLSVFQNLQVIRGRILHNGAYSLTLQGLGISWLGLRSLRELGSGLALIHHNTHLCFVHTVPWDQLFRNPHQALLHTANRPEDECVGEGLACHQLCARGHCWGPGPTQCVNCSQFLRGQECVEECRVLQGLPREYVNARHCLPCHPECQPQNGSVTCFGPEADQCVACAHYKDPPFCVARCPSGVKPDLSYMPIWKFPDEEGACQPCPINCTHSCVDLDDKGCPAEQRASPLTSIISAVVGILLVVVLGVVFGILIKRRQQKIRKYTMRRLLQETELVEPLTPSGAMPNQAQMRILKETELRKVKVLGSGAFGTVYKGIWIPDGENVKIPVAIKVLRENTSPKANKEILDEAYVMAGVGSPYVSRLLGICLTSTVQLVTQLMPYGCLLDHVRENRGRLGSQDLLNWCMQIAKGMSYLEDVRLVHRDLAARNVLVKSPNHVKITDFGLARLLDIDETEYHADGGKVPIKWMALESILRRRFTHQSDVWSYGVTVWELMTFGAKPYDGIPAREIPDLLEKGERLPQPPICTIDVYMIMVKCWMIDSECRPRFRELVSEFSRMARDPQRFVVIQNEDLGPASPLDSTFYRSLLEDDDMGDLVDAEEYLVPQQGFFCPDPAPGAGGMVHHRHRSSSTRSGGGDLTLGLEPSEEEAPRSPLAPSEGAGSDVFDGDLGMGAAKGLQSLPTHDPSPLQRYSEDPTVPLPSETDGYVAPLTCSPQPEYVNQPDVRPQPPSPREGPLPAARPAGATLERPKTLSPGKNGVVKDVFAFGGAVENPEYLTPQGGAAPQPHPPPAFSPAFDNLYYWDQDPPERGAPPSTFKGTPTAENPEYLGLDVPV
Description: as §1, §2, §3, §4

[4] = molecular target: T4, HER3 (P21860) (Homo sapiens, UniProt P21860)
T4 construct: purchased PamGene (PamChip PTK array, Upstream Kinase Analysis)
T4 sequence (P21860 20-1342): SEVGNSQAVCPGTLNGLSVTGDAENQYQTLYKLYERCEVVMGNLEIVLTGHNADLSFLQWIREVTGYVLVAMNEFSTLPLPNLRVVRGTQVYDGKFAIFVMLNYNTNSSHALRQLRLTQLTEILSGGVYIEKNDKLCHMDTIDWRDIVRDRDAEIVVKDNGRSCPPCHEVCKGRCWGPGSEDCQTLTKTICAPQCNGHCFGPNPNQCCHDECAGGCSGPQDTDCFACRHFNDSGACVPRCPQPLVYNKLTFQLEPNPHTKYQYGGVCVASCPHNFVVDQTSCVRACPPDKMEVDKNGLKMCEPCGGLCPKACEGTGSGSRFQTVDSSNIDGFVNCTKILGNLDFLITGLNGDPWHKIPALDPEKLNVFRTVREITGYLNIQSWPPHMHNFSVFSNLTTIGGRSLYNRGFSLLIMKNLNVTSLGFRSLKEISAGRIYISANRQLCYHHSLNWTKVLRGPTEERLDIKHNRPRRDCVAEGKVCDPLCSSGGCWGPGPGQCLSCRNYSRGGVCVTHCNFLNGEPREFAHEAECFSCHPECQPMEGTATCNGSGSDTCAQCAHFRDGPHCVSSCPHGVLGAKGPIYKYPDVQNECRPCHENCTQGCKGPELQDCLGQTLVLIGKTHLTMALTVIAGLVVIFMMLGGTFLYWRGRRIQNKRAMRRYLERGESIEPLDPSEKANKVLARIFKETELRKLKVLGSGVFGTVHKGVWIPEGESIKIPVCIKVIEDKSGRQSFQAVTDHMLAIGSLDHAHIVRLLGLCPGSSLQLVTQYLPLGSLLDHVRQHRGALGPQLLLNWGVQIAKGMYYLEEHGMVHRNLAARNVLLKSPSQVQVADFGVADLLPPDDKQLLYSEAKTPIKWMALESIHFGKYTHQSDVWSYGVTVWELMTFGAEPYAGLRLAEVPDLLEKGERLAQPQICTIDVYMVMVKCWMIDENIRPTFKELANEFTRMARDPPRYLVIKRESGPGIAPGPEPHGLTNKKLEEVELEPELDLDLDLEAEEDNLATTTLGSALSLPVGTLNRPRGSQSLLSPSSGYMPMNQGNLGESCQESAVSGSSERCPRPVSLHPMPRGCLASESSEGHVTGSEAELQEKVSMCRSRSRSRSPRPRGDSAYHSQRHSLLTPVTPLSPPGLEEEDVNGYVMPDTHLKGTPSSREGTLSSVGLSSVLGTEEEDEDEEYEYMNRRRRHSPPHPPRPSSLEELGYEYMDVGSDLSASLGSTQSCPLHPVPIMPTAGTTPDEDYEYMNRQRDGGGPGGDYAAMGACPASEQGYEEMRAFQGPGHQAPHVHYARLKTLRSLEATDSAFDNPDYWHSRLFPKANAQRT
Description: as §1, §2, §3, §4

[5] = molecular target: T5, ITK (Q08881) (Homo sapiens, UniProt Q08881)
T5 construct: purchased PamGene (PamChip PTK array, Upstream Kinase Analysis)
T5 sequence (Q08881 1-620): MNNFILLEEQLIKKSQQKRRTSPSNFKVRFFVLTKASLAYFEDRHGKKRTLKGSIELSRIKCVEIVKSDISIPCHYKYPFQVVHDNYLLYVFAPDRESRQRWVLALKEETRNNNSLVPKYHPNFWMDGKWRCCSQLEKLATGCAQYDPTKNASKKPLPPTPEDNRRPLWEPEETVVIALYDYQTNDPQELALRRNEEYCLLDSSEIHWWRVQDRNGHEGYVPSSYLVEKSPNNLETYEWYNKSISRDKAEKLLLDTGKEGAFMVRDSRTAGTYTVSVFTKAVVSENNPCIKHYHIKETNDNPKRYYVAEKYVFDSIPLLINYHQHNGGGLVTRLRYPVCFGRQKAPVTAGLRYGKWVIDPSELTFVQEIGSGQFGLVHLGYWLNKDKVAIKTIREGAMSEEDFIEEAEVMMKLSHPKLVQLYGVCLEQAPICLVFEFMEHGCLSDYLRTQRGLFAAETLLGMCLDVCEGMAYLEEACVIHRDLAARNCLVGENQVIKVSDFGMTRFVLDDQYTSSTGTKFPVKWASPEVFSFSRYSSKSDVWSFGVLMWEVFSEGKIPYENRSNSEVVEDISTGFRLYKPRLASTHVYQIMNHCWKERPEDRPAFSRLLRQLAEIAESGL
Description: as §1, §2, §3, §4

[6] = molecular target: T6, InSR (P06213) (Homo sapiens, UniProt P06213)
T6 construct: purchased PamGene (PamChip PTK array, Upstream Kinase Analysis)
T6 sequence (P06213 28-1382): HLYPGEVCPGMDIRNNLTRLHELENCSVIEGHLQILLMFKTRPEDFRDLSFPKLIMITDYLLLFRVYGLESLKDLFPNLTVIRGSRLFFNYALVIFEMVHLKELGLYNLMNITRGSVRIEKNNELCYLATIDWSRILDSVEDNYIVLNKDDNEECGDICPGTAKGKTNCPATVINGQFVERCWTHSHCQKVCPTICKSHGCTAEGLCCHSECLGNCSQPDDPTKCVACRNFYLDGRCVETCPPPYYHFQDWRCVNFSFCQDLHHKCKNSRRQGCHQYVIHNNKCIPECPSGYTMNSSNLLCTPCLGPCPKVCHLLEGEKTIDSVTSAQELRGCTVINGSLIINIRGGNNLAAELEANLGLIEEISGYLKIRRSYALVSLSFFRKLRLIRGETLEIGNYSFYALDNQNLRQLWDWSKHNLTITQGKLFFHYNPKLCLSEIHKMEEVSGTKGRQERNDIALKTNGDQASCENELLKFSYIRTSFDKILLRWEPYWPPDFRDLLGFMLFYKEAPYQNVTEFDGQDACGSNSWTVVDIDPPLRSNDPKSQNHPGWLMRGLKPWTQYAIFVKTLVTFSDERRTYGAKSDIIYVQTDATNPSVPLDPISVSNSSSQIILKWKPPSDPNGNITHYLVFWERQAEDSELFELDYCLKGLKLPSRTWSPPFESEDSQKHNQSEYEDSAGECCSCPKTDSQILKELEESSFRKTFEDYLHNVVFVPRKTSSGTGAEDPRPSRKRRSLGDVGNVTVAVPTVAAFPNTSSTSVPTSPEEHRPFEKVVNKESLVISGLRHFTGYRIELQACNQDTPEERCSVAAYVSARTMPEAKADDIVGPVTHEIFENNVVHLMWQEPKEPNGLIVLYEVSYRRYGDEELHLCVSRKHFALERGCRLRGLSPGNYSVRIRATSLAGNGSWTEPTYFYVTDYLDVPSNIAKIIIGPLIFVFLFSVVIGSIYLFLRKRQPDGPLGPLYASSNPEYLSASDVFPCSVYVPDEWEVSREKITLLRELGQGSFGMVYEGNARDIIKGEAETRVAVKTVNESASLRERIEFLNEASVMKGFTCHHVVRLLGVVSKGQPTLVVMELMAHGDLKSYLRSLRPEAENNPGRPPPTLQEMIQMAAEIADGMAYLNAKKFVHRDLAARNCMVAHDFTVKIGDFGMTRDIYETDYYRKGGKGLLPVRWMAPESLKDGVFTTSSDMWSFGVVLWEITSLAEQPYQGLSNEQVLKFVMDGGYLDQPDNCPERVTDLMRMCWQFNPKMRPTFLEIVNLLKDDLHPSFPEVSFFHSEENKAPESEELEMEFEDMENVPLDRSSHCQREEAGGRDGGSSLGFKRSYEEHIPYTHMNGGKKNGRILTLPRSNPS
Description: as §1, §2, §3, §4

[7] = molecular target: T7, ZAP70 (P43403) (Homo sapiens, UniProt P43403)
T7 construct: purchased PamGene (PamChip PTK array, Upstream Kinase Analysis)
T7 sequence (P43403 1-619): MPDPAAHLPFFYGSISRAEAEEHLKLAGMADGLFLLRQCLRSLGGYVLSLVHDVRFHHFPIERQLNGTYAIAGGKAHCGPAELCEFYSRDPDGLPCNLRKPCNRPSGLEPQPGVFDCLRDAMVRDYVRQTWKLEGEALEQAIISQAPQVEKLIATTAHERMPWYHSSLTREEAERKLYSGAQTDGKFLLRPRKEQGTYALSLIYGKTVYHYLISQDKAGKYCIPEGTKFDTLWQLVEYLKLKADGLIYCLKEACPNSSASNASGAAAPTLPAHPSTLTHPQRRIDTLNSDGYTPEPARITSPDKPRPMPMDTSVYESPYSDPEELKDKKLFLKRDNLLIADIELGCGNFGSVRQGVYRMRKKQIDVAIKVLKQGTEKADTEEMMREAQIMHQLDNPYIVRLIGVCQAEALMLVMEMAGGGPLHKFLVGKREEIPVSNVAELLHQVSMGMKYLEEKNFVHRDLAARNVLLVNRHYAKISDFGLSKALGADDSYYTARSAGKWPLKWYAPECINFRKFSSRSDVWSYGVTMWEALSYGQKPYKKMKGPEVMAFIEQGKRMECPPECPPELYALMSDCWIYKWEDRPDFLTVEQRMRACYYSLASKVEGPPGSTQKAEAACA
Description: as §1, §2, §3, §4

COc1ccc(/C=C2\N=C(C)N(c3ccc(CC(=O)NCc4ccccc4)cc3)C2=O)cc1 [Compound 4c, (Z)-N-Benzyl-2-(4-(4-(4-methoxybenzylidene)-2-methyl-5-oxo-4,5-dihydro-1H-imidazol-1-yl)phenyl)acetamide]
Mean Final score (Kinase score) [1]: 2.191
Mean Kinase Statistic [1]: -1.128
Mean Significance Score [1]: 1.966
Mean Specificity Score [1]: 0.1837
Mean Final score (Kinase score) [2]: 2.271
Mean Kinase Statistic [2]: -1.175
Mean Significance Score [2]: 1.984
Mean Specificity Score [2]: 0.3218
Mean Final score (Kinase score) [3]: 2.103
Mean Kinase Statistic [3]: -1.031
Mean Significance Score [3]: 1.88
Mean Specificity Score [3]: 0.08906
Mean Final score (Kinase score) [4]: 2.412
Mean Kinase Statistic [4]: -1.214
Mean Significance Score [4]: 2.014
Mean Specificity Score [4]: 0.4279
Mean Significance Score [5]: 2.048
Mean Specificity Score [5]: 2.074
Mean Final score (Kinase score) ([5]; listed as KIM-161): 3.95 and 3.951
Mean Final score (Kinase score) [6]: 2.117
Mean Kinase Statistic [6]: -0.9506
Mean Significance Score [6]: 2.048
Mean Specificity Score [6]: 0.02144
Mean Final score (Kinase score) [7]: 1.771
Mean Kinase Statistic [7]: -1.015
Mean Significance Score [7]: 1.836
Mean Specificity Score [7]: 0.009048
